Reference: the NIST ThermoML archive (doi:10.1016/j.jct.2019.03.014)

Columns and labels:
[1] = Ring tensiometer
[2] = xn = mol fraction of the nth substance listed; conditions: Ring tensiometer

CCCCO [butan-1-ol]
[1]
Conditions	surface tension liquid-gas [mN/m]
293.2 K	24.7
303.2 K	23.8
313.2 K	22.8
323.2 K	21.6
333.2 K	20.3

CCCCO [butan-1-ol] + OCC(O)CO
[2], x1 = 1
Conditions	surface tension liquid-gas [mN/m]
293.2 K	24.7
303.2 K	23.8
313.2 K	22.8
323.2 K	21.6
333.2 K	20.3

CCO [ethanol]
[1]
Conditions	surface tension liquid-gas [mN/m]
293.2 K	22.3
303.2 K	21.4
313.2 K	20.6
323.2 K	19.8
333.2 K	19

CCO [ethanol] + OCC(O)CO
[2], x1 = 1
Conditions	surface tension liquid-gas [mN/m]
293.2 K	22.3
303.2 K	21.4
313.2 K	20.6
323.2 K	19.8
333.2 K	19

OCC(O)CO [glycerol]
[1]
Conditions	surface tension liquid-gas [mN/m]
293.2 K	63.1
298.2 K	62.9
303.2 K	62.4
313.2 K	62
323.2 K	61.1
333.2 K	60.5

OCC(O)CO [glycerol] + CC(C)O
surface tension liquid-gas [mN/m], [2]
Conditions	x2 = 0	x2 = 0.1	x2 = 0.2	x2 = 0.3	x2 = 0.4	x2 = 0.5	x2 = 0.6	x2 = 0.7	x2 = 0.8	x2 = 0.9
293.2 K	63.1	45.7	34.3	28.8	26.7	25.6	24.8	23.9	22.8	21.9
303.2 K	62.4	45.1	34	28.5	26.2	25.1	24.2	23.4	22.3	21.4
313.2 K	62	44.4	33.6	28	25.8	24.6	23.7	23	21.8	20.9
323.2 K	61.1	43.9	32.9	27.6	25.5	24.1	23.5	22.5	21.2	20
333.2 K	60.5	43.2	32.2	27.2	25	23.7	22.6	22.1	20.6	19.1

OCC(O)CO [glycerol] + CCCCO
surface tension liquid-gas [mN/m], [2]
Conditions	x2 = 0	x2 = 0.1	x2 = 0.2	x2 = 0.3	x2 = 0.4	x2 = 0.5	x2 = 0.6	x2 = 0.7	x2 = 0.8	x2 = 0.9
293.2 K	63.1	33.1	28	26.4	26.2	25.9	25.7	25.4	25.2	24.8
303.2 K	62.4	32.9	27.7	26.2	26	25.7	25.4	25.1	24.8	24.3
313.2 K	62	32.8	27.3	26.1	25.8	25.5	25.1	24.8	24.5	23.7
323.2 K	61.1	32.7	27	25.6	25.2	24.7	24.3	24	23.7	22.7
333.2 K	60.5	32.5	26.7	25.3	24.8	24.3	23.7	23.2	22.9	21.6

OCC(O)CO [glycerol] + CCCO
surface tension liquid-gas [mN/m], [2]
Conditions	x2 = 0	x2 = 0.1	x2 = 0.2	x2 = 0.3	x2 = 0.4	x2 = 0.5	x2 = 0.6	x2 = 0.7	x2 = 0.8	x2 = 0.9
293.2 K	63.1	41.8	33.4	30.1	28.3	27.3	26.5	26	25.3	24.7
303.2 K	62.4	41.5	33.1	29.7	27.9	26.9	26.1	25.5	24.8	24.1
313.2 K	62	41.2	32.8	29.3	27.7	26.4	25.7	25	24.2	23.3
323.2 K	61.1	40.9	32.5	28.9	27.2	26	25.3	24.5	23.6	22.5
333.2 K	60.5	40.5	32.2	28.5	26.6	25.6	25	24	23	21.6

OCC(O)CO [glycerol] + CCO
surface tension liquid-gas [mN/m], [2]
Conditions	x2 = 0	x2 = 0.1	x2 = 0.2	x2 = 0.3	x2 = 0.4	x2 = 0.5	x2 = 0.6	x2 = 0.7	x2 = 0.8	x2 = 0.9
293.2 K	63.1	52.9	41.7	36.1	31.9	29	27.5	26.2	24.9	23.7
303.2 K	62.4	52.4	41.4	35.9	31.6	28.5	27.1	25.4	24.2	23.2
313.2 K	62	52	41.1	35.7	31.2	27.9	26.7	24.5	23.5	22.6
323.2 K	61.1	51.5	40.7	35.4	30.9	27.7	26.3	23.6	22.8	22
333.2 K	60.5	51.1	40.5	35	30.6	27.2	25.9	22.7	22.1	21.2

CCCO [propan-1-ol]
[1]
Conditions	surface tension liquid-gas [mN/m]
293.2 K	23.7
303.2 K	22.9
313.2 K	22.1
323.2 K	21.3
333.2 K	20.6

CCCO [propan-1-ol] + OCC(O)CO
[2], x1 = 1
Conditions	surface tension liquid-gas [mN/m]
293.2 K	23.7
303.2 K	22.9
313.2 K	22.1
323.2 K	21.3
333.2 K	20.6

CC(C)O [propan-2-ol]
[1]
Conditions	surface tension liquid-gas [mN/m]
293.2 K	21.4
303.2 K	20.7
313.2 K	19.7
323.2 K	18.7
333.2 K	17.6

CC(C)O [propan-2-ol] + OCC(O)CO
[2], x1 = 1
Conditions	surface tension liquid-gas [mN/m]
293.2 K	21.4
303.2 K	20.7
313.2 K	19.7
323.2 K	18.7
333.2 K	17.6
